In paper PMC9693141 (Molecules, 2022):
Read-outs that look alike come from different tables or passages of the source.

Tests used:
[1] = tested on: L. infantum axenic amastigotes; assay: In vitro antileishmanial evaluation on axenic amastigotes (resazurin viability); format: cell-based, Leishmania infantum; conditions: 72 h incubation then resazurin 24 h, triplicate, three independent experiments, read-out: L. infantum Axenic Amastigotes IC50 (µM) ± S.D.
Experimental: Cultures of axenic amastigotes of L. infantum were adapted from. Briefly, axenic amastigotes of L. infantum were obtained from late log promastigotes diluted at 1 × 10^6/mL in M199 complete medium acidified at pH 5.5 and cultured at 37 °C with 5% CO2.
The evaluations of activity on axenic amastigotes were adapted from the protocols previously described. […] Cell viability was then monitored as described above. The activity of the compounds was expressed as IC50, which was determined by nonlinear regression using GraphPad Prism 7.0.

[2] = tested on: L. infantum intramacrophagic amastigotes; assay: In vitro antileishmanial evaluation on intramacrophage amastigotes in RAW264.7 macrophages (Giemsa counting); format: cell-based, Leishmania infantum; conditions: infected RAW264.7 macrophages, 48 h of treatment, amastigotes per macrophage counted, read-out: L. infantum Intramacrophagic Amastigotes IC50 (µM) ± S.D.
Experimental: Promastigotes of Leishmania infantum (MHOM/FR/2008/LEM5700) were cultured in the dark at 26 °C with 5% CO2 in M199 complete medium containing M199 medium supplemented with adenosine (100 µM), hemin (0.5 mg/L), Hepes (40 mM) pH 7.4, and heat-inactivated fetal bovine serum (10%; HIFBS). Cultures of axenic amastigotes of L. infantum were adapted from. Briefly, axenic amastigotes of L. infantum were obtained from late log promastigotes diluted at 1 × 10^6/mL in M199 complete medium acidified at pH 5.5 and cultured at 37 °C with 5% CO2.
(§1) The RAW 264.7 macrophages (ATCC) were cultured at 37 °C with 5% CO2 in DMEM complete medium containing Dulbecco’s Modified Eagle’s Medium (DMEM, Invitrogen, Thermo-Fisher, Villebon-sur-Yvette, France) supplemented with penicillin-streptomycin (100 U/mL; Invitrogen) and heat-inactivated fetal bovine serum (10%; HIFBS).
Concerning the evaluation on intramacrophage amastigotes, the determination of the cytotoxicity as presented above was necessary to use the highest drug concentrations to be studied on the intramacrophage amastigote model. The evaluation on the intracellular form on the parasite was performed as previously described. RAW264.7 macrophages were plated in 16-well Lab-Tek chamber slides (Thermo-Fisher Villebon-sur-Yvette, France) at a density of 2 × 10^4 cells per well and incubated for 24 h at 37 °C with 5% CO2. Axenic amastigotes were differentiated as described above, centrifuged at 2000× g for 10 min, resuspended in DMEM complete medium, and added to each well to reach a 16:1 parasite to macrophage ratio. After 24 h of infection at 37 °C with 5% CO2, extracellular parasites were removed, and DMEM complete medium (100 µL) containing two-fold serial dilutions of the compounds, from 100 µM to 0.049 µM, was added to each well. A positive control treated with 1% DMSO was added to each Lab-tek chamber slide. After 48 h of treatment, the medium was removed and cells were fixed in methanol for 1 min, stained in 10% Giemsa (Merck, Guyancourt, France) for 5 min, and further rinsed in water before observation in phase contrast at the microscope (Olympus CX31; Olympus, Rungis, France). The number of amastigotes was counted by two independent experimenters for a total of 300 macrophages per well and the ratio of amastigotes per macrophage was determined for each condition. This ratio was further compared with the one of the positive controls, considered as 100%, to determine a percentage of inhibition (% I), as follows: % I = 100 − [(ratio of amastigotes per macrophage in treated cells/ratio of amastigotes per macrophages in untreated cells) × 100]. The activity of the compounds was expressed as IC50, which was determined by nonlinear regression using GraphPad Prism 7.0. […] In vitro antileishmanial evaluations were performed in triplicate in three independent experiments.

RAW 264.7 macrophages = assay: In vitro cytotoxicity on RAW 264.7 macrophages (resazurin); format: cell-based; conditions: 48 h of incubation, read-out: Cytotoxicity on RAW 264.7 CC50 (µM) ± S.D.
Experimental: as §1
Cells were plated in 96-well microplates at a density of 2 × 10^4 cells per well. […] In living cells, resazurin is reduced in resorufin, and this conversion is monitored by measuring OD570nm (resorufin) and OD600nm (resazurin; multimode microplate reader Spark®, Tecan, Lyon, France). […] In vitro cytotoxicity assays were performed in triplicate in three independent experiments.

Row | Molecule | IC50 ([1]; Leishmania infantum) | IC50 ([2]; Leishmania infantum) | IC50 [1] | CC50 (RAW 264.7 macrophages) | IC50 [2]
1 | Cn1c(=O)c2c(c3ccccc31)OC(C)(C)C1CCC(C)(O)C(Cl)C21 (stereo not shown) [Compound 3, Chloroaustralasine A] | 8 µM | > 50 µM | 8.1 ± 1.4 µM |  | 
2 | CC1(O)CCC2C(c3c(c4ccccc4[nH]c3=O)OC2(C)C)C1Cl (stereo not shown) [Compound 4] | 18.6 ± 2.5 µM | > 6.25 µM |  |  | 
3 | Cn1c(=O)c2c(c3ccccc31)OC1(C)CCCC(C)(C)C1=C2 (stereo not shown) [Compound 11, 5,8,8,11a-Tetramethyl-5,8,9,10,11,11a-hexahydro-6H-chromeno [3,2-c]quinolin-6-one] | > 100 µM | 14.7 ± 1.6 µM |  |  | 
4 | Cn1c(=O)c2c(c3ccccc31)OC1(C)CCC3C1C2C3(C)C (stereo not shown) [Compound 12, 1,1,3a,9-Tetramethyl-1,1a,1a1,2,3,3a,9,10b-octahydro-10H-4-oxa-9-azacyclobuta [7,1]indeno [5,6-a]naphthalen-10-one] | 42.6 ± 2.1 µM | > 50 µM |  |  | 
5 | CC(C)=CCCC1(C)C=Cc2c(c3ccccc3[nH]c2=O)O1 (stereo not shown) [Compound 14, 2-Methyl-2-(4-methylpent-3-en-1-yl)-2,6-dihydro-5H-pyrano [3,2-c]quinolin-5-one] | 15.6 ± 1.8 µM | > 100 µM |  |  | 
6 | CCCCCn1c(=O)c2c(c3ccccc31)OC(C)(CCC=C(C)C)C=C2 (stereo not shown) [Compound 15g, 2-Methyl-2-(4-methylpent-3-en-1-yl)-6-pentyl-2,6-dihydro-5H-pyrano [3,2-c]quinolin-5-one] | 82.7 ± 6.5 µM | 29.5 ± 9.9 µM |  | > 100 µM | 
7 | CCCCCCCCCCCCCCCCOP(=O)([O-])OCC[N+](C)(C)C [Miltefosine, reference compound] | 1 ± 0.3 µM | 6.7 ± 1.7 µM |  |  | 
8 | Zanthosimuline [Compound 7] |  |  | 29.1 ± 1 µM |  | > 100 µM

More lines, main results first:

Row | IC50 ([1]; Leishmania infantum) | IC50 ([2]; Leishmania infantum) | Molecule | IC50 [1] | CC50 (RAW 264.7 macrophages) | IC50 [2]
9 | 16.8 ± 1.8 µM | 23.7 ± 6.5 µM | CC(C)=CCCC1(C)C=Cc2c(c3ccccc3n(Cc3ccccc3)c2=O)O1 (stereo not shown) [Compound 15a, 6-Benzyl-2-methyl-2-(4-methylpent-3-en-1-yl)-2,6-dihydro-5H-pyrano [3,2-c]quinolin-5-one] |  |  | 
10 | 15 ± 1.7 µM | > 25 µM | COc1cccc(Cn2c(=O)c3c(c4ccccc42)OC(C)(CCC=C(C)C)C=C3)c1 (stereo not shown) [Compound 15b, 6-(3-Methoxybenzyl)-2-methyl-2-(4-methylpent-3-en-1-yl)-2,6-dihydro-5H-pyrano [3,2-c]quinolin-5-one] |  |  | 
11 | 14.2 ± 4.3 µM | > 25 µM | CC(C)=CCCC1(C)C=Cc2c(c3ccccc3n(Cc3ccccn3)c2=O)O1 (stereo not shown) [Compound 15c, 2-Methyl-2-(4-methylpent-3-en-1-yl)-6-(pyridin-2-ylmethyl)-2,6-dihydro-5H-pyrano [3,2-c]quinolin-5-one] |  |  | 
12 | 17.8 ± 2.3 µM | > 25 µM | COCCn1c(=O)c2c(c3ccccc31)OC(C)(CCC=C(C)C)C=C2 (stereo not shown) [Compound 15d, 6-(2-Methoxyethyl)-2-methyl-2-(4-methylpent-3-en-1-yl)-2,6-dihydro-5H-pyrano [3,2-c]quinolin-5-one] |  |  | 
13 | 9.8 ± 2.9 µM | > 50 µM | CC(C)=CCCC1(C)C=Cc2c(c3ccccc3n(CCc3ccccc3)c2=O)O1 (stereo not shown) [Compound 15f, 2-Methyl-2-(4-methylpent-3-en-1-yl)-6-phenethyl-2,6-dihydro-5H-pyrano [3,2-c]quinolin-5-one] |  |  | 
14 | > 100 µM | > 100 µM | CC(C)=CCCC1(C)C=Cc2c(c3ccccc3n(S(=O)(=O)c3ccccc3)c2=O)O1 (stereo not shown) [Compound 15h, 2-Methyl-2-(4-methylpent-3-en-1-yl)-6-(phenylsulfonyl)-2,6-dihydro-5H-pyrano [3,2-c]quinolin-5-one] |  |  | 
15 | 12.9 ± 3.2 µM | > 15 µM | CC(C)=CCCC1(C)C=Cc2c(c3ccccc3n(C(=O)Oc3ccccc3)c2=O)O1 (stereo not shown) [Compound 15i, Phenyl 2-methyl-2-(4-methylpent-3-en-1-yl)-5-oxo-2H-pyrano [3,2-c]quinoline-6(5H)-carboxylate] |  |  | 
16 | 9.1 ± 0.4 µM | > 25 µM | CC(C)=CCCC1(C)C=Cc2c(c3ccccc3n(C(=O)OC(C)(C)C)c2=O)O1 (stereo not shown) [Compound 15j, tert-Butyl 2-methyl-2-(4-methylpent-3-en-1-yl)-5-oxo-2H-pyrano [3,2-c]quinoline-6(5H)-carboxylate] |  |  | 
17 | 14.6 ± 2.1 µM | 19 ± 2.2 µM | COC(=O)CCCCn1c(=O)c2c(c3ccccc31)OC(C)(CCC=C(C)C)C=C2 (stereo not shown) [Compound 15k, Methyl 5-(2-methyl-2-(4-methylpent-3-en-1-yl)-5-oxo-2H-pyrano [3,2-c]quinolin-6(5H)-yl)pentanoate] |  |  | 
18 | 16.4 ± 1.7 µM | > 100 µM | CC(C)=CCCC1(C)C=Cc2c(c3ccccc3n(CCCCC(=O)O)c2=O)O1 (stereo not shown) [Compound 15l, 5-(2-Methyl-2-(4-methylpent-3-en-1-yl)-5-oxo-2H-pyrano [3,2-c]quinolin-6(5H)-yl)pentanoic acid] |  |  | 
19 | 7 ± 2.1 µM | > 25 µM | CC1(C)CCCC2(C)Oc3c(c(=O)n(Cc4ccccc4)c4ccccc34)C=C12 (stereo not shown) [Compound 16a, 5-Benzyl-8,8,11a-trimethyl-5,8,9,10,11,11a-hexahydro-6H-chromeno [3,2-c]quinolin-6-one] |  |  | 
